A word on the IC50: it is the midpoint of a concentration-inhibition curve. A higher IC50 goes with a need for much substance.

Tested on in one data set: not listed separately
The data set is described as follows: Selectivity index, ratio of IC50 for rat L6 cells to IC50 for chloroquine-resistant Plasmodium falciparum K1. The class given is toxicity, cell-based. Conditions: read-out: Ratio IC50.
Regarding `Cn1c2nc3ccccc3c-2c(Cl)c2ccccc21` [11-CHLORONEOCRYPTOLEPINE], the selectivity ratio turned out to be 0.7.

On to `Cn1c2nc3ccccc3c-2c(NCCCNC(=O)Nc2ccccc2)c2cc([N+](=O)[O-])ccc21`, for which the selectivity ratio is 91.4.

As for `Cn1c2nc3ccccc3c-2c(NCCCN)c2ccccc21`, the selectivity ratio stood at 9.4.

For the compound `COc1ccc2c(c1)c(NCCCNC(=O)Nc1ccccc1)c1c3ccccc3nc-1n2C`, the selectivity ratio was determined as 1240.

The test system of a further data set is Plasmodium falciparum. The data set is described as follows: Antimalarial activity against chloroquine-resistant Plasmodium falciparum K1 after 72 hrs by [3H]hypoxanthine incorporation assay. The class given is functional, organism-based.
Conditions: not given
Regarding `C[C@@H]1CC[C@H]2[C@@H](C)C(=O)O[C@@H]3O[C@@]4(C)CC[C@@H]1[C@]32OO4` [ARTEMISININ], it took 2.8 nM to reach half-maximal inhibition (IC50).

As for `Cn1c2nc3ccccc3c-2c(Cl)c2ccccc21` [11-CHLORONEOCRYPTOLEPINE], half-maximal inhibition (IC50) required 2000 nM.

Compound `Cn1c2nc3ccccc3c-2c(NCCCNC(=O)Nc2ccccc2)c2cc([N+](=O)[O-])ccc21` showed an IC50 of 29.9 nM.

In turn, `Cn1c2nc3ccccc3c-2c(NCCCN)c2ccccc21` displayed a half-inhibitory concentration (IC50) of 29.6 nM.

`COc1ccc2c(c1)c(NCCCNC(=O)Nc1ccccc1)c1c3ccccc3nc-1n2C` had an IC50 of 2.2 nM.

Tested on in the next data set: not listed separately
The data set is described as follows: Selectivity index, ratio of IC50 for rat L6 cells to IC50 for chloroquine-sensitive Plasmodium falciparum NF54. It counts as toxicity, cell-based. Conditions: read-out: Ratio IC50.
In the case of `Cn1c2nc3ccccc3c-2c(NCCCN)c2cc(Cl)ccc21`, the selectivity ratio was 22.8.

Turning to `Cn1c2nc3ccccc3c-2c(NCCCN)c2cc(C(F)(F)F)ccc21`, the selectivity ratio is 86.3.

`Cn1c2nc3ccccc3c-2c(NCCCN)c2cc(F)ccc21`: the selectivity ratio was found to be 6.8.

Consider `Cn1c2nc3ccccc3c-2c(NCCCNC(=O)c2cccs2)c2ccccc21`, for which the selectivity ratio is 17.3.

Take `Cn1c2nc3ccccc3c-2c(NCCCNS(=O)(=O)c2ccc3ccccc3c2)c2ccccc21`: the selectivity ratio was 1.3.

For the compound `Cn1c2nc3ccccc3c-2c(NCCCN)c2cc([N+](=O)[O-])ccc21`, the selectivity ratio was 18.3.

Regarding `Cn1c2nc3ccccc3c-2c(Cl)c2ccccc21` [11-CHLORONEOCRYPTOLEPINE], the selectivity ratio was 0.7.

Consider `Cn1c2nc3ccccc3c-2c(NCCCNC(=O)Nc2ccccc2)c2cc([N+](=O)[O-])ccc21`, for which the selectivity ratio was determined as 1300.

Consider `Cn1c2nc3ccccc3c-2c(NCCCN)c2ccccc21`, for which the selectivity ratio worked out at 3.5.

As to `COc1ccc2c(c1)c(NCCCNC(=O)Nc1ccccc1)c1c3ccccc3nc-1n2C`, the selectivity ratio came to 621.

`Cn1c2nc3ccccc3c-2c(NCCCCCCNC(=O)Nc2ccccc2)c2ccccc21`: the selectivity ratio is 15.4.

As for `CCCCNC(=O)NCCCNc1c2c3ccccc3nc-2n(C)c2ccccc12`, the selectivity ratio is 16.7.

`Cn1c2nc3ccccc3c-2c(NCCCCCCN)c2ccccc21`: the selectivity ratio came to 7.1.

As for `COc1ccc2c(c1)c(NCCCN)c1c3ccccc3nc-1n2C`, the selectivity ratio is 5.1.

As for `Cn1c2nc3ccccc3c-2c(NCCCN)c2cc(Br)ccc21`, the selectivity ratio turned out to be 24.8.

Tested on in a further data set: not listed separately
Briefly: Toxicity against rat L6 cells after 72 hrs by Alamar blue assay. It counts as cell-based.
Conditions: not given
On the technique in general: Resazurin is reduced to fluorescent resorufin, in cell work by metabolically active cells.
For the compound `Cn1c2nc3ccccc3c-2c(NCCCN)c2cc(Cl)ccc21`, half-maximal inhibition (IC50 at 72 h) was put at 269 nM.

`Cn1c2nc3ccccc3c-2c(NCCCN)c2cc(C(F)(F)F)ccc21` gave a half-inhibitory concentration (IC50) at 72 h of 924 nM.

`Cn1c2nc3ccccc3c-2c(NCCCN)c2cc(F)ccc21` yielded a concentration for half-maximal inhibition (IC50) at 72 h of 338 nM.

Compound `Cn1c2nc3ccccc3c-2c(NCCCNC(=O)c2cccs2)c2ccccc21` showed an IC50 at 72 h of 4460 nM.

Compound `Cn1c2nc3ccccc3c-2c(NCCCNS(=O)(=O)c2ccc3ccccc3c2)c2ccccc21` registered a 50% inhibitory concentration (IC50) at 72 h of 18.2 nM. This IC50 at 72 h lies about 250-fold lower than the previous one.

`Cn1c2nc3ccccc3c-2c(NCCCN)c2cc([N+](=O)[O-])ccc21` returned a half-maximal inhibitory concentration (IC50) at 72 h of 209 nM.

Consider `Cn1c2nc3ccccc3c-2c(Cl)c2ccccc21` [11-CHLORONEOCRYPTOLEPINE], for which the IC50 at 72 h turned out to be 1460 nM.

Compound `Cn1c2nc3ccccc3c-2c(NCCCNC(=O)Nc2ccccc2)c2cc([N+](=O)[O-])ccc21` gave a half-maximal inhibitory concentration (IC50) at 72 h of 2730 nM. This IC50 at 72 h is about 1.9-fold higher than that of the compound before.

For `Cn1c2nc3ccccc3c-2c(NCCCN)c2ccccc21`, the IC50 at 72 h was determined as 279 nM. This IC50 at 72 h is about 9.8-fold lower than that of the compound before.

Consider `COc1ccc2c(c1)c(NCCCNC(=O)Nc1ccccc1)c1c3ccccc3nc-1n2C`, for which the IC50 at 72 h came out at 2730 nM.

`Cn1c2nc3ccccc3c-2c(NCCCCCCNC(=O)Nc2ccccc2)c2ccccc21`: the IC50 at 72 h turned out to be 397 nM. Against the preceding compound, the IC50 at 72 h is about 6.9-fold lower.

Compound `CCCCNC(=O)NCCCNc1c2c3ccccc3nc-2n(C)c2ccccc12` yielded an IC50 at 72 h of 1740 nM.

Regarding `Cn1c2nc3ccccc3c-2c(NCCCCCCN)c2ccccc21`, half-maximal inhibition (IC50 at 72 h) required 693 nM. This IC50 at 72 h is about 2.5-fold lower than that of the compound before.

`COc1ccc2c(c1)c(NCCCN)c1c3ccccc3nc-1n2C`: the midpoint of inhibition, the IC50 at 72 h, lay at 383 nM.

With `Cn1c2nc3ccccc3c-2c(NCCCN)c2cc(Br)ccc21`, the IC50 at 72 h is 258 nM.

The test system of a further data set is Plasmodium falciparum. The data set is described as follows: microbe, parasite or virus in culture. Conditions: NF54.
Description: Antimalarial activity against chloroquine-sensitive Plasmodium falciparum NF54 after 72 hrs by [3H]hypoxanthine incorporation assay
Consider `Cn1c2nc3ccccc3c-2c(NCCCN)c2cc(Cl)ccc21`, for which half-maximal inhibition (IC50) required 11.8 nM.

For `Cn1c2nc3ccccc3c-2c(NCCCN)c2cc(C(F)(F)F)ccc21`, the IC50 is 10.7 nM.

Compound `Cn1c2nc3ccccc3c-2c(NCCCN)c2cc(F)ccc21` came in with an IC50 of 49.6 nM.

Compound `Cn1c2nc3ccccc3c-2c(NCCCNC(=O)c2cccs2)c2ccccc21` had an IC50 of 258 nM.

`Cn1c2nc3ccccc3c-2c(NCCCNS(=O)(=O)c2ccc3ccccc3c2)c2ccccc21` showed an IC50 of 14.2 nM.

Consider `Cn1c2nc3ccccc3c-2c(NCCCN)c2cc([N+](=O)[O-])ccc21`, for which half-maximal inhibition (IC50) required 11.4 nM.

Compound `C[C@@H]1CC[C@H]2[C@@H](C)C(=O)O[C@@H]3O[C@@]4(C)CC[C@@H]1[C@]32OO4` [ARTEMISININ] displayed a half-inhibitory concentration (IC50) of 4.3 nM.

Consider `Cn1c2nc3ccccc3c-2c(Cl)c2ccccc21` [11-CHLORONEOCRYPTOLEPINE], for which the IC50 was found to be 2060 nM.

In turn, `Cn1c2nc3ccccc3c-2c(NCCCNC(=O)Nc2ccccc2)c2cc([N+](=O)[O-])ccc21` yielded an IC50 of 2.1 nM.

`Cn1c2nc3ccccc3c-2c(NCCCN)c2ccccc21` had a concentration for half-maximal inhibition (IC50) of 78.8 nM.

Compound `COc1ccc2c(c1)c(NCCCNC(=O)Nc1ccccc1)c1c3ccccc3nc-1n2C` showed an IC50 of 4.4 nM.

The compound `Cn1c2nc3ccccc3c-2c(NCCCCCCNC(=O)Nc2ccccc2)c2ccccc21` registered a half-maximal inhibitory concentration (IC50) of 25.8 nM.

Regarding `CCCCNC(=O)NCCCNc1c2c3ccccc3nc-2n(C)c2ccccc12`, the IC50 amounted to 104 nM. Against the preceding compound, the IC50 is about 4-fold higher.

`Cn1c2nc3ccccc3c-2c(NCCCCCCN)c2ccccc21` yielded an IC50 of 98.1 nM.

`COc1ccc2c(c1)c(NCCCN)c1c3ccccc3nc-1n2C` showed an IC50 of 74.8 nM.

Compound `Cn1c2nc3ccccc3c-2c(NCCCN)c2cc(Br)ccc21` yielded a concentration for half-maximal inhibition (IC50) of 10.4 nM.

The record behind these values is ChEMBL document CHEMBL2321781, “Synthesis and in vitro antimalarial testing of neocryptolepines: SAR study for improved activity by introduction and modifications of side chains at C2 and C11 on indolo[2,3-b]quinolines” (J Med Chem, 2013).
